According to patent publication EP2935231B1, “C-XYLOSIDE COMPOUNDS, COMPOSITIONS AND USE THEREOF TO DEPIGMENT THE SKIN” (L'OREAL, priority 2012, dated 2014):
pIC50: −log10 of the molar value. Where two headings read alike, the source gives them in different places.

Assays:
[1] = tested on: coculture de kératinocytes et de mélanocytes; assay: Cytotoxicity on keratinocyte/melanocyte coculture (leucine incorporation); conditions: coculture of keratinocytes and melanocytes
From the text: (§1) Ce test est réalisé sur coculture de kératinocytes et de mélanocytes.
(§2) Pour le composé testé, il a été déterminé : • la cytotoxicité, en estimant l'incorporation de la leucine, • l'activité inhibitrice sur la synthèse de la mélanine, en estimant le rapport de l'incorporation de thiouracile à l'incorporation de leucine, rapporté à 100 % du témoin (le témoin correspond au test réalisé sans composé à testé). Les valeurs des IC50 (concentration pour laquelle 50 % de la synthèse de la mélanine est inhibée) ont été déterminées.

synthèse de la mélanine = assay: Inhibition of melanin synthesis in keratinocyte/melanocyte coculture (ratio of thiouracil to leucine incorporation); format: cell-based; conditions: concentration at which 50 % of melanin synthesis is inhibited; thiouracil/leucine incorporation relative to 100 % of control
From the text: as §1, §2

[2] = tested on: modèle de peau reconstruite complet comprenant un derme vivant; assay: Pigmentation in complete reconstructed skin model with living dermis, pigmentation induced by forskolin; format: cell-based
From the text: L'activité du composé 1 a été évaluée sur le modèle de peau reconstruite complet décrit dans le brevet FR2928654 selon le procédé décrit dans le brevet FR2930644.
Le composé 1 a été ajouté au milieu de culture pendant une période de 16 jours à partir du 2eme jour de la phase d'émersion. La pigmentation a été induite par la Forskoline ajoutée pendant une période de 14 jours à partir du 4eme jour d'émersion (condition contrôle positif pigmenté).
Le composé 1 a montré une activité dépigmentante sur les paramètres suivants : • Luminance (clarté de la peau) plus la valeur de luminance est élevée plus l'échantillon de peau est clair : • augmentation significative de 6 points de la luminance pour le composé1 (Valeur de L contrôle positif = 63, valeur de L traitement par molécule 1 à 1 mM = 69) • Quantification de la mélanine par analyse d'images sur des coupes colorées au Fontana Masson (coloration argentique des grains de mélanine) : réduction de 60% de la quantité de mélanine par le composé 1 (contrôle positif = valeur arbitraire de 100%, composé 1 à 1 mM = 39,48%).

[3] = tested on: coculture de kératinocytes et de mélanocytes
From the text: as §1, §2

O=c1cc(CO)occ1O [Acide kojique]
Cytotoxicité sur co-culture [1]: 100 µM | pIC50 (synthèse de la mélanine): < 3.30

OC[C@H]1O[C@@H](Oc2ccc(O)cc2)[C@H](O)[C@@H](O)[C@@H]1O [Arbutine]
Cytotoxicité sur co-culture [1]: Non cytotoxique | pIC50 (synthèse de la mélanine): < 3.30

COc1cc(CCC(O)CC2OC[C@@H](O)[C@H](O)[C@H]2O)ccc1O (stereo partly drawn) [Composé 1, (3R,4S,5R)-2-[2-hydroxy-4-(4-hydroxy-3-methoxyphenyl)butyl]tetrahydro-2H-pyran-3,4,5-triol]
valeur de L (luminance) ([2]; 1 mM, 16 days in culture medium, forskolin-induced pigmentation, higher = lighter skin): 69 | augmentation de la luminance ([2]; 1 mM, 16 days in culture medium, versus forskolin positive control (L = 63)): 6 points | quantité de mélanine (contrôle positif = valeur arbitraire de 100%) ([2]; 1 mM, image analysis of Fontana Masson stained sections): 39,48% | réduction de la quantité de mélanine ([2]; 1 mM, image analysis of Fontana Masson stained sections, versus positive control): 60% | effet toxique ([2]; histology (morphology of reconstructed skin) and number of melanocytes (TRP1 labelling, DOPA reaction on epidermal sheet)): absence d'effet toxique

Oc1ccc(CCC(O)CC2OC[C@@H](O)[C@H](O)[C@H]2O)c(O)c1 (stereo partly drawn) [Composé 11, (3R,4S,5R)-2-[2-hydroxy-4-(2,4-di-hydroxy-phenyl)butyl]tetrahydro-2H-pyran-3,4,5-triol]
pIC50 (synthèse de la mélanine): 3.84 | Cytotoxicité sur co-culture [3]: Non cytotoxique
